We go through 19 molecules from patent US11180474B2 (BRISTOL-MYERS SQUIBB COMPANY, priority 2016, dated 2021).

For one assay, the target named is T1, human TLR8 (Homo sapiens, UniProt Q9NR97).
T1 construct: host or cells: HEK-Blue cells
T1 sequence (Q9NR97 27-1041): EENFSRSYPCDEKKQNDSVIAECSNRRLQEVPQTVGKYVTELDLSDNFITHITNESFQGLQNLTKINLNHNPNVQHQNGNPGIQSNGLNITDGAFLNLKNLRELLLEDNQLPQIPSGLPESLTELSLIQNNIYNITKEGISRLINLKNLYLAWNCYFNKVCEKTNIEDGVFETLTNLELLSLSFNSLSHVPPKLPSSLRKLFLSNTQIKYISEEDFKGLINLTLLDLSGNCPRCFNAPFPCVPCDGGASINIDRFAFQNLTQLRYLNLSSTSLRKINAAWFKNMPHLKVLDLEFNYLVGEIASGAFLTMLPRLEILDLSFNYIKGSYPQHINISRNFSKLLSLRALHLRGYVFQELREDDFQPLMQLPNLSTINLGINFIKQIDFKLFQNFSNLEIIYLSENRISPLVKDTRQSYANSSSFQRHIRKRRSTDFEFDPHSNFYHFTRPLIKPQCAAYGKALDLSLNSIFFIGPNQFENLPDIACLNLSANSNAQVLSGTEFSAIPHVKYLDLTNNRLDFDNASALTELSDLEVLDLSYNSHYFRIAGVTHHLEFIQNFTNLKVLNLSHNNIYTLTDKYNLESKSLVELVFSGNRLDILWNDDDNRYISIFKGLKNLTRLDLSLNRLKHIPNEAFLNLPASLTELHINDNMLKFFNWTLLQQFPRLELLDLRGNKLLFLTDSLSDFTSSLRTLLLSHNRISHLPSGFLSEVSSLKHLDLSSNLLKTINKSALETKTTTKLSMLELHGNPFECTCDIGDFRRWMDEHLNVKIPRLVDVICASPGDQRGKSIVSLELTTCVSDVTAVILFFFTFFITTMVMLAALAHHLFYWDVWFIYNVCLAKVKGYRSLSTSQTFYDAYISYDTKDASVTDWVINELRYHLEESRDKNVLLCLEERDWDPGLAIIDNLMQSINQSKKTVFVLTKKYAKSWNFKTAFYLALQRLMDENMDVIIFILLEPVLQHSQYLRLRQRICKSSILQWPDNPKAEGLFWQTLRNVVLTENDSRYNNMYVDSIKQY
Kind of assay: TLR8 inhibition reporter assay (HEK-Blue cells, SEAP reporter, R848 stimulation). The class given is cell-based. The settings on record: HEK-Blue cells overexpressing human TLR8, R848 15.9 μM. Summed up: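 Cells (15000/well for TLR7, 20,000 for TLR8) were treated with compounds over 0.05 nM-50 μM final. After 22 h at 37° C, 5% CO2, SEAP was measured with HEK-Blue Detection reagent; percent inhibition was taken as reduction of agonist-plus-DMSO signal relative to a known inhibitor.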
In general terms: A reporter such as luciferase makes a cellular process visible.

For the next assay, the target named is T2, human TLR9 (Homo sapiens, UniProt Q9NR96).
T2 construct: host or cells: HEK-Blue cells
T2 sequence (Q9NR96 26-1032): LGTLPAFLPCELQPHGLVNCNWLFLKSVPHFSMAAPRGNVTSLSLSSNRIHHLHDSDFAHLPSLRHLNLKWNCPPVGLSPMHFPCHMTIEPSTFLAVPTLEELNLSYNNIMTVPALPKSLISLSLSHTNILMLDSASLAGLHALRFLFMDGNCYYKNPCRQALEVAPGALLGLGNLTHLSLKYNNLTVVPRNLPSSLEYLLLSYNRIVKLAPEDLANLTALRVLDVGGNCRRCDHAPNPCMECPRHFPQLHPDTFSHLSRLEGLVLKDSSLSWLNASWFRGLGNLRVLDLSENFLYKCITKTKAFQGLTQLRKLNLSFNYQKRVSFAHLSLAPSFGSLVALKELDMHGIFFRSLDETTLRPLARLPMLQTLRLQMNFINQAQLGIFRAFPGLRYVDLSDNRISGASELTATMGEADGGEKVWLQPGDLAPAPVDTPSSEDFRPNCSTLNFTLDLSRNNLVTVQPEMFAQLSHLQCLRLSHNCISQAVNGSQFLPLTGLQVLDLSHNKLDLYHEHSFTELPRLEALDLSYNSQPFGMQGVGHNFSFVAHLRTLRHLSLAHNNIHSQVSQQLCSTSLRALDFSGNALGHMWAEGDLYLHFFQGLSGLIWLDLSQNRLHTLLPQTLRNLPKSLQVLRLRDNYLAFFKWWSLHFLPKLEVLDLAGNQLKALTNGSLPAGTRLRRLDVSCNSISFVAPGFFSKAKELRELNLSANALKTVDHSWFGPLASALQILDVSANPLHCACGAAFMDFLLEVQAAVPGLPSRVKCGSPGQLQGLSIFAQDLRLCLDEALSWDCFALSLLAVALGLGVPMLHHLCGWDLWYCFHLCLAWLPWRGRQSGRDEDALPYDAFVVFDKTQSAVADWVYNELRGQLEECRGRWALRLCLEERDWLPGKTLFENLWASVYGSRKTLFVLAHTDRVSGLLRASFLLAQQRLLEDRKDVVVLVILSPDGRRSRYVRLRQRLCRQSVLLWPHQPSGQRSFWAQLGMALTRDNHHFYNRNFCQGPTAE
Description: TLR9 inhibition reporter assay (HEK-Blue cells, SEAP reporter, ODN2006 stimulation). The class given is cell-based. The note with it: HEK-Blue cells overexpressing human TLR9, ODN2006 5 nM. Summed up:
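Human TLR7/8/9 HEK-Blue reporter lines; dose range 0.05 nM–50 μM; 30 min RT preincubation; stimulus gardiquimod 7.5 μM / R848 15.9 μM / ODN2006 5 nM respectively; 22 h, 37 °C; SEAP detected colorimetrically.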

With `CCCCCN1CCC(N2CCC(c3ccc4[nH]c(-c5ccc(OC)c(OC)c5)c(C)c4c3)CC2)CC1` [Example 55, 2-(3,4-dimethoxyphenyl)-3-methyl-5-(1′-pentyl-[1,4′-bipiperidin]-4-yl)-1H-indole], the IC50 on human TLR8 was found to be 293 nM; at human TLR9 it was 72 nM.

Consider `COc1ccc(-c2[nH]c3ccc(C4CCN(C5CCN(CC(C)(C)C)CC5)CC4)cc3c2C)cc1OC` [Example 75, 2-(3,4-dimethoxyphenyl)-3-methyl-5-(1′-neopentyl-[1,4′-bipiperidin]-4-yl)-1H-indole], for which the IC50 against human TLR8 stood at 325 nM; against human TLR9, 169 nM.

`COc1ccc(-c2[nH]c3ccc(C4CCN(C5CCN(CC6CCOC6)CC5)CC4)cc3c2C)cc1OC` (centres unmarked) [Example 74]: the IC50 on human TLR8 is 102 nM; against human TLR9, 62 nM.

`COc1ccc(-c2[nH]c3ccc(C4CCN(C5CC(C)(C)NC(C)(C)C5)CC4)cc3c2C)cc1OC` [Example 48, 2-(3,4-dimethoxyphenyl)-3-methyl-5-(2′,2′,6′,6′-tetramethyl-[1,4′-bipiperidin]-4-yl)-1H-indole]: the IC50 on human TLR8 worked out at 616 nM; on human TLR9, 435 nM.

With `COc1ccc(-c2[nH]c3ccc(C4CCN(C(=O)CNCCC(C)O)CC4)cc3c2C)cc1OC` (centres unmarked) [Example 406, 1-(4-(2-(3,4-dimethoxyphenyl)-3-methyl-1H-indol-5-yl)piperidin-1-yl)-2-((3-hydroxybutyl)amino)ethan-1-one], the IC50 stood at 2050 nM on human TLR8 and 3890 nM against human TLR9.

Consider `CNCCN1CCC(c2ccc3[nH]c(-c4ccc(OC)c(OC)c4)c(CC(F)(F)F)c3c2)CC1` [Example 413, 2-(4-(2-(3,4-dimethoxyphenyl)-3-(2,2,2-trifluoroethyl)-1H-indol-5-yl)piperidin-1-yl)-N-methylethanamine], for which the values for the IC50 against human TLR8 and at human TLR9 were 28 nM and 626 nM, respectively.

In the case of `COc1ccc(-c2[nH]c3ccc(C4CCN(C(=O)CN5CCC(N(C)C)CC5)CC4)cc3c2C)cc1OC` [Example 407, 1-(4-(2-(3,4-dimethoxyphenyl)-3-methyl-1H-indol-5-yl)piperidin-1-yl)-2-(4-(dimethylamino)piperidin-1-yl)ethan-1-one], the half-maximal inhibitory concentration (IC50) was no less than 50000 nM on human TLR8 and 11500 nM at human TLR9.

With `COc1ccc(-c2[nH]c3ccc(C4CCN(C5CCN(Cc6cncn6C)CC5)CC4)cc3c2C)cc1OC` [Example 59, 2-(3,4-dimethoxyphenyl)-3-methyl-5-(1′-((1-methyl-1H-imidazol-5-yl)methyl)-[1,4′-bipiperidin]-4-yl)-1H-indole], the IC50 came to 187 nM on human TLR8 and 180 nM on human TLR9.

As to `COc1ccc(-c2[nH]c3ccc(C4CCN(C5CCN(C6CCC(C)CC6)CC5)CC4)cc3c2C)cc1OC` (centres unmarked) [Example 80, 2-(3,4-dimethoxyphenyl)-3-methyl-5-(1′-(4-methylcyclohexyl)-[1,4′-bipiperidin]-4-yl)-1H-indole], the values for the IC50 at human TLR8 and on human TLR9 were 284 nM and 80 nM, respectively.

On to `COc1ccc(-c2[nH]c3ccc(C4CCN(C5CCN(Cc6cccn6C)CC5)CC4)cc3c2C)cc1OC` [Example 78, 2-(3,4-dimethoxyphenyl)-3-methyl-5-(1′-((1-methyl-1H-pyrrol-2-yl)methyl)-[1,4′-bipiperidin]-4-yl)-1H-indole], for which the IC50 at human TLR8 worked out at 143 nM; at human TLR9, 130 nM.

As to `COc1ccc(-c2[nH]c3ccc(C4CCN(C5CCCN(C6CCCC6)CC5)CC4)cc3c2C)cc1OC` (centres unmarked) [Example 93, 5-(1-(1-cyclopentylazepan-4-yl)piperidin-4-yl)-2-(3,4-dimethoxyphenyl)-3-methyl-1H-indole], the IC50 at human TLR8 was found to be 302 nM; at human TLR9, 237 nM.

As for `CCN(CC)C(=O)C1CCCN(CC(=O)N2CCC(c3ccc4[nH]c(-c5ccc(OC)c(OC)c5)c(CC(F)(F)F)c4c3)CC2)C1` (centres unmarked) [Example 418, 1-(2-(4-(2-(3,4-dimethoxyphenyl)-3-(2,2,2-trifluoroethyl)-1H-indol-5-yl)piperidin-1-yl)-2-oxoethyl)-N,N-diethylpiperidine-3-carboxamide], the IC50 on human TLR8 is 77 nM; on human TLR9, 1450 nM.

In the case of `COc1ccc(-c2[nH]c3ccc(C4CCN(C5CCCN(C)CC5)CC4)cc3c2C)cc1OC` (centres unmarked) [Example 91, 2-(3,4-dimethoxyphenyl)-3-methyl-5-(1-(1-methylazepan-4-yl)piperidin-4-yl)-1H-indole], the IC50 was 352 nM at human TLR8 and 313 nM against human TLR9.

As to `CCN(CC)C(=O)C1CCCN(CC(=O)N2CCC(c3ccc4[nH]c(-c5ccc(OC)c(OC)c5)c(CC(F)(F)F)c4c3)CC2)C1` (centres unmarked) [Example 420, 1-(2-(4-(2-(3,4-dimethoxyphenyl)-3-(2,2,2-trifluoroethyl)-1H-indol-5-yl)piperidin-1-yl)-2-oxoethyl)-N,N-diethylpiperidine-3-carboxamide], the IC50 on human TLR8 worked out at 25 nM; against human TLR9, 279 nM.

As for `COc1ccc(-c2[nH]c3ccc(C4CCN(C(=O)CN5CCN(C)CC5)CC4)cc3c2C)cc1OC` [Example 409, 1-(4-(2-(3,4-dimethoxyphenyl)-3-methyl-1H-indol-5-yl)piperidin-1-yl)-2-(4-methylpiperazin-1-yl)ethan-1-one], the IC50 on human TLR8 is 11200 nM; against human TLR9, 2350 nM.

Take `COc1ccc(-c2[nH]c3ccc(C4CCN(C5CCCN(CC(C)C)CC5)CC4)cc3c2C)cc1OC` (centres unmarked) [Example 95, 2-(3,4-dimethoxyphenyl)-5-(1-(1-isobutylazepan-4-yl)piperidin-4-yl)-3-methyl-1H-indole]: the IC50 against human TLR8 worked out at 195 nM; against human TLR9, 115 nM.

Turning to `COc1ccc(-c2[nH]c3ccc(C4CCN(C5CCN(CC(O)CO)CC5)CC4)cc3c2C)cc1OC` (centres unmarked) [Example 52, 3-(4-(2-(3,4-dimethoxyphenyl)-3-methyl-1H-indol-5-yl)-[1,4′-bipiperidin]-1′-yl)propane-1,2-diol], the figures for the IC50 against human TLR8 and against human TLR9 were 333 nM and 268 nM, respectively.

As to `COc1ccc(-c2[nH]c3ccc(C4CCN(C(=O)CN(C)CCO)CC4)cc3c2C)cc1OC` [Example 408, 1-(4-(2-(3,4-dimethoxyphenyl)-3-methyl-1H-indol-5-yl)piperidin-1-yl)-2-((2-hydroxyethyl)(methyl)amino)ethan-1-one], the IC50 against human TLR8 came out at 4770 nM; at human TLR9 it was 2000 nM.

Consider `COc1ccc(-c2[nH]c3ccc(C4CCN(C5CCN(Cc6nccs6)CC5)CC4)cc3c2C)cc1OC` [Example 72, 2-((4-(2-(3,4-dimethoxyphenyl)-3-methyl-1H-indol-5-yl)-[1,4′-bipiperidin]-1′-yl)methyl)thiazole], for which the results for the IC50 on human TLR8 and at human TLR9 were 312 nM and 356 nM, respectively.

Broadly, the IC50 is the concentration at which inhibition is half-maximal. A higher IC50 goes with a need for much substance.
